In patent publication US20230036051A1, “C[…] STABILITY” (priority 2021, published 2023):

Assay: Storage stability of THC in ground cannabis flower, non-accelerated storage conditions
Assay type: physicochemical
Details: loss of THC content; positive control, amount not given
Experimental: After analyzing initial cannabinoid content, an amount of terpene blend 1 was added to 3.5 (±0.05) g of ground flower (1, 2, or 3%, by weight of the dried cannabis) was applied to the product and stored in an air-tight container protected from light. All experiments were performed in triplicate. The testing conditions included: (1) Non-Accelerated Storage Conditions without exogenous terpenes “Control”; (2) Accelerated Conditions (+3.0% by weight hydrogen peroxide, initially, and refreshed each week) without exogenous terpenes, and (3) Accelerated Conditions with exogenous terpenes “H2O2+Terpene” (Blend 1). (FIG. 2). Butylated hydroxytoluene (BHT), a preservative used in food, known to prevent radical-mediated oxidation was employed as a positive control. Each container was opened twice/week and stirred, simulating usual conditions for access of medicinal cannabis. The cannabinoid content was analyzed after 24 and 81 days of storage.
The stabilizing effect was observed after 81 days (TABLE 2) and also between days 24 and 81 (TABLE 3).

Cc1cc(C(C)(C)C)c(O)c(C(C)(C)C)c1 [BHT, Butylated hydroxytoluene]
Relative % Loss 0 to 81 Days: 7.90% | Relative % Loss 24 to 81 Days: 18.65%
